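Five compound concentrations were applied to cells in 96-well plates for 48 hours; endpoints were derived by simple linear interpolation of the resulting dose-response curve. Abbreviation: GI50, concentration required for 50% inhibition of growth.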 Active and inactive are the calls of the source. No stated cut-off is given here; in the data, active = GI50 up to about 1.1 µM and inactive = higher.
Tests used:
Assay in all cases: NCI-60 cell line screen, 48 h
[1] = test system: CCRF-CEM
[2] = test system: SK-OV-3
[3] = test system: U-251
[4] = test system: HOP-62
[5] = test system: HCT-15
[6] = test system: NCI-H460
[7] = test system: M14
[8] = test system: DLD-1
[9] = test system: XF498
[10] = test system: OVCAR-4
[11] = test system: HCC 2998
[12] = test system: HOP-92
[13] = test system: SK-MEL-2
[14] = test system: NCI-H226
[15] = test system: SNB-78
[16] = test system: OVCAR-8
[17] = test system: A549
[18] = test system: 786-0
[19] = test system: SK-MEL-28
[20] = test system: RPMI-8226
[21] = test system: UACC-62
[22] = test system: HCT-116
[23] = test system: SF-539
[24] = test system: DMS-114
[25] = test system: CAKI-1
[26] = test system: SK-MEL-5
[27] = test system: NCI-H522
[28] = test system: LOX IMVI
[29] = test system: OVCAR-5
[30] = test system: UO-31
[31] = test system: RXF 631
[32] = test system: SW-620
[33] = test system: MOLT-4
[34] = test system: K562
[35] = test system: COLO 205
[36] = test system: Malme-3M
[37] = test system: HL-60
[38] = test system: NCI-H23
[39] = test system: LXFL 529
[40] = test system: A498
[41] = test system: SN12C
[42] = test system: KM-20L2
[43] = test system: SNB-19
[44] = test system: M19-MEL
[45] = test system: RXF 393
[46] = test system: TK-10
[47] = test system: SNB-75
[48] = test system: EKVX
[49] = test system: ACHN
[50] = test system: SF-268
[51] = test system: IGROV-1
[52] = test system: UACC-257
[53] = test system: DMS-273
[54] = test system: OVCAR-3
[55] = test system: HT-29
[56] = test system: KM12
[57] = test system: HOP-18
[58] = test system: SF-295

Question: For `CCc1cccc(C(C)C)c1NC(=O)C(=O)CC(=O)c1c(C)[n+]([O-])c2ccccc2[n+]1[O-]`, which GI50 [1] is on record?
Answer: > 100 µM (inactive)

Question: And the GI50 [2]?
Answer: > 100 µM (inactive)

Question: And the GI50 [3]?
Answer: > 100 µM (inactive)

Question: What about the GI50 [4] of the same compound?
Answer: > 100 µM (inactive)

Question: What about the GI50 [5] of the same compound?
Answer: > 100 µM

Question: What about the GI50 [6] of the same compound?
Answer: > 100 µM (inactive)

Question: What about the GI50 [7] of the same compound?
Answer: > 100 µM (inactive)

Question: What about the GI50 [8] of the same compound?
Answer: > 100 µM (inactive)

Question: What about the GI50 [9] of the same compound?
Answer: > 100 µM (inactive)

Question: And the GI50 [10]?
Answer: > 100 µM (inactive)

Question: And the GI50 [11]?
Answer: > 100 µM (inactive)

Question: What about the GI50 [12] of the same compound?
Answer: > 100 µM (inactive)

Question: What about the GI50 [13] of the same compound?
Answer: > 100 µM (inactive)

Question: And the GI50 [14]?
Answer: > 100 µM (inactive)

Question: What about the GI50 [15] of the same compound?
Answer: > 100 µM (inactive)

Question: And the GI50 [16]?
Answer: > 100 µM (inactive)

Question: What about the GI50 [17] of the same compound?
Answer: > 100 µM (inactive)

Question: What about the GI50 [18] of the same compound?
Answer: > 100 µM (inactive)

Question: What about the GI50 [19] of the same compound?
Answer: > 100 µM (inactive)

Question: And the GI50 [20]?
Answer: 30.1 µM (inactive)

Question: And the GI50 [21]?
Answer: > 100 µM (inactive)

Question: What about the GI50 [22] of the same compound?
Answer: > 100 µM (inactive)

Question: And the GI50 [23]?
Answer: > 100 µM (inactive)

Question: And the GI50 [24]?
Answer: > 100 µM (inactive)

Question: What about the GI50 [25] of the same compound?
Answer: > 100 µM (inactive)

Question: What about the GI50 [26] of the same compound?
Answer: > 100 µM (inactive)

Question: What about the GI50 [27] of the same compound?
Answer: > 100 µM (inactive)

Question: What about the GI50 [28] of the same compound?
Answer: > 100 µM (inactive)

Question: What about the GI50 [29] of the same compound?
Answer: > 100 µM (inactive)

Question: And the GI50 [30]?
Answer: > 100 µM (inactive)

Question: And the GI50 [31]?
Answer: > 100 µM (inactive)

Question: What about the GI50 [32] of the same compound?
Answer: > 100 µM (inactive)

Question: And the GI50 [33]?
Answer: 56.1 µM (inactive)

Question: What about the GI50 [34] of the same compound?
Answer: > 100 µM (inactive)

Question: What about the GI50 [35] of the same compound?
Answer: > 100 µM (inactive)

Question: And the GI50 [36]?
Answer: > 100 µM (inactive)

Question: And the GI50 [37]?
Answer: > 100 µM (inactive)

Question: What about the GI50 [38] of the same compound?
Answer: > 100 µM (inactive)

Question: What about the GI50 [39] of the same compound?
Answer: > 100 µM (inactive)

Question: What about the GI50 [40] of the same compound?
Answer: > 100 µM (inactive)

Question: And the GI50 [41]?
Answer: > 100 µM (inactive)

Question: What about the GI50 [42] of the same compound?
Answer: > 100 µM (inactive)

Question: What about the GI50 [43] of the same compound?
Answer: > 100 µM (inactive)

Question: And the GI50 [44]?
Answer: > 100 µM (inactive)

Question: What about the GI50 [45] of the same compound?
Answer: > 100 µM (inactive)

Question: And the GI50 [46]?
Answer: > 100 µM (inactive)

Question: And the GI50 [47]?
Answer: > 100 µM (inactive)

Question: What about the GI50 [48] of the same compound?
Answer: > 100 µM (inactive)

Question: And the GI50 [49]?
Answer: 77.6 µM (inactive)

Question: What about the GI50 [50] of the same compound?
Answer: > 100 µM (inactive)

Question: What about the GI50 [51] of the same compound?
Answer: > 100 µM (inactive)

Question: With `CC(C)N(C(=O)C12C3C4C1(I)C1C2C3(I)C41C(=O)N(C(C)C)C(C)C)C(C)C` (configuration not stated) as the compound, how does the GI50 [1] read?
Answer: > 41.8 µM (inactive)

Question: What about the GI50 [2] of the same compound?
Answer: > 100 µM (inactive)

Question: What about the GI50 [3] of the same compound?
Answer: > 71 µM (inactive)

Question: What about the GI50 [4] of the same compound?
Answer: > 100 µM (inactive)

Question: And the GI50 [5]?
Answer: > 43.3 µM

Question: What about the GI50 [6] of the same compound?
Answer: > 100 µM (inactive)

Question: And the GI50 [7]?
Answer: > 100 µM (inactive)

Question: And the GI50 [8]?
Answer: > 56.5 µM (inactive)

Question: What about the GI50 [9] of the same compound?
Answer: > 100 µM (inactive)

Question: What about the GI50 [52] of the same compound?
Answer: > 100 µM (inactive)

Question: What about the GI50 [10] of the same compound?
Answer: > 58.5 µM (inactive)

Question: And the GI50 [11]?
Answer: > 100 µM (inactive)

Question: What about the GI50 [12] of the same compound?
Answer: > 100 µM (inactive)

Question: And the GI50 [53]?
Answer: > 100 µM (inactive)

Question: And the GI50 [13]?
Answer: > 100 µM (inactive)

Question: What about the GI50 [14] of the same compound?
Answer: > 100 µM (inactive)

Question: And the GI50 [16]?
Answer: > 100 µM (inactive)

Question: And the GI50 [17]?
Answer: > 100 µM (inactive)

Question: And the GI50 [18]?
Answer: > 45.7 µM (inactive)

Question: What about the GI50 [19] of the same compound?
Answer: > 100 µM (inactive)

Question: And the GI50 [54]?
Answer: > 100 µM (inactive)

Question: And the GI50 [20]?
Answer: > 52.2 µM (inactive)

Question: What about the GI50 [21] of the same compound?
Answer: > 100 µM (inactive)

Question: And the GI50 [22]?
Answer: > 100 µM (inactive)

Question: What about the GI50 [23] of the same compound?
Answer: > 43.9 µM (inactive)

Question: What about the GI50 [25] of the same compound?
Answer: > 100 µM (inactive)

Question: And the GI50 [26]?
Answer: > 100 µM (inactive)

Question: What about the GI50 [27] of the same compound?
Answer: > 75.9 µM (inactive)

Question: What about the GI50 [28] of the same compound?
Answer: > 43.5 µM (inactive)

Question: And the GI50 [29]?
Answer: > 100 µM (inactive)

Question: What about the GI50 [30] of the same compound?
Answer: > 100 µM (inactive)

Question: And the GI50 [31]?
Answer: > 100 µM (inactive)

Question: And the GI50 [32]?
Answer: > 39.2 µM (inactive)

Question: What about the GI50 [33] of the same compound?
Answer: > 100 µM (inactive)

Question: And the GI50 [34]?
Answer: > 43.4 µM (inactive)

Question: What about the GI50 [35] of the same compound?
Answer: > 57.3 µM (inactive)

Question: What about the GI50 [36] of the same compound?
Answer: > 100 µM (inactive)

Question: And the GI50 [37]?
Answer: > 44.9 µM (inactive)

Question: What about the GI50 [38] of the same compound?
Answer: > 100 µM (inactive)

Question: What about the GI50 [39] of the same compound?
Answer: > 67.6 µM (inactive)

Question: And the GI50 [40]?
Answer: > 100 µM (inactive)

Question: What about the GI50 [55] of the same compound?
Answer: > 100 µM (inactive)

Question: And the GI50 [41]?
Answer: > 100 µM (inactive)

Question: What about the GI50 [42] of the same compound?
Answer: > 100 µM (inactive)

Question: What about the GI50 [43] of the same compound?
Answer: > 100 µM (inactive)

Question: What about the GI50 [44] of the same compound?
Answer: > 47 µM (inactive)

Question: What about the GI50 [56] of the same compound?
Answer: > 43.2 µM (inactive)

Question: What about the GI50 [45] of the same compound?
Answer: > 100 µM (inactive)

Question: And the GI50 [46]?
Answer: > 100 µM (inactive)

Question: And the GI50 [57]?
Answer: > 100 µM (inactive)

Question: What about the GI50 [47] of the same compound?
Answer: > 73.1 µM (inactive)

Question: What about the GI50 [58] of the same compound?
Answer: > 100 µM (inactive)

Question: What about the GI50 [48] of the same compound?
Answer: > 100 µM (inactive)

Question: What about the GI50 [49] of the same compound?
Answer: > 100 µM (inactive)

Question: What about the GI50 [50] of the same compound?
Answer: > 100 µM (inactive)

Question: What about the GI50 [51] of the same compound?
Answer: > 100 µM (inactive)

Reference: ChEMBL document CHEMBL1201862, “PubChem BioAssay data set” (2004)
